# Laboratory results as given in ChEMBL document CHEMBL1201862, “PubChem BioAssay data set” (2004).
# Active and inactive are the calls of the source.
# What was measured:
# [1] = system: Streptococcus sp. 'group A'; experiment: growth inhibition of control SK(-) GAS strain, dose response, counter-screen for streptokinase expression inhibitor project, luminescence, kanamycin, BacTiterGlo, confirmation (AID 1900); format: functional, organism-based
# [2] = biological target: T1, Streptokinase A (Streptococcus pyogenes serotype M1, UniProt P10520); experiment: S. pyogenes streptokinase expression inhibitors, potency, dose response, plasminogen activation absorbance, OD405 (AID 1914); format: functional, Streptococcus pyogenes M1 GAS;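 note: secreted streptokinase activity via plasminogen activation per viability signal from cell pellet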
# T1 sequence (P10520 whole entry): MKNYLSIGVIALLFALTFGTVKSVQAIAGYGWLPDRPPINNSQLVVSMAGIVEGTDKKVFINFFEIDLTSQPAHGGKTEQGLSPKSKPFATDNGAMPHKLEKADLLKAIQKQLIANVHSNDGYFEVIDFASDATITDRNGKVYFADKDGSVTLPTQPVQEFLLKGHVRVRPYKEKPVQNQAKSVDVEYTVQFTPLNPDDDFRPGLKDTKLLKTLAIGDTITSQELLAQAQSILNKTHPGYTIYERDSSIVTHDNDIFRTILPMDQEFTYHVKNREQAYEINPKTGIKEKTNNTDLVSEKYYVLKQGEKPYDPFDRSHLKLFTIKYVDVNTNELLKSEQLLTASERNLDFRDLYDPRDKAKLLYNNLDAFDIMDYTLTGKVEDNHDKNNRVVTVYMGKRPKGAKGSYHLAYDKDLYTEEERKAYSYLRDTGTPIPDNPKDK
# [3] = biological target: T2, Calpain-2 catalytic subunit (Sus scrofa, UniProt P43367); experiment: pig calpain II inhibitor potency, dose response, biochemical, fluorogenic peptide substrate (AID 1420); format: functional
# T2 sequence (P43367 whole entry): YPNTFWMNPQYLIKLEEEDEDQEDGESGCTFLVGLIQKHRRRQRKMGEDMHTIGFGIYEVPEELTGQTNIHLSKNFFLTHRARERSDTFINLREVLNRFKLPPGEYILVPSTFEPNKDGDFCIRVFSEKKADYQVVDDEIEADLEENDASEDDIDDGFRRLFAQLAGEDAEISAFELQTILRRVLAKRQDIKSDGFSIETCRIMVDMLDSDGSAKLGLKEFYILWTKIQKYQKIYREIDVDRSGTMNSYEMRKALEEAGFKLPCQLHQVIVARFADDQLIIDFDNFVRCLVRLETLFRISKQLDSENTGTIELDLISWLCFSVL
# [4] = biological target: Induced myeloid leukemia cell differentiation protein Mcl-1 (Homo sapiens, UniProt Q07820); format: functional
# Induced myeloid leukemia cell differentiation protein Mcl-1, sequence (Q07820 whole entry): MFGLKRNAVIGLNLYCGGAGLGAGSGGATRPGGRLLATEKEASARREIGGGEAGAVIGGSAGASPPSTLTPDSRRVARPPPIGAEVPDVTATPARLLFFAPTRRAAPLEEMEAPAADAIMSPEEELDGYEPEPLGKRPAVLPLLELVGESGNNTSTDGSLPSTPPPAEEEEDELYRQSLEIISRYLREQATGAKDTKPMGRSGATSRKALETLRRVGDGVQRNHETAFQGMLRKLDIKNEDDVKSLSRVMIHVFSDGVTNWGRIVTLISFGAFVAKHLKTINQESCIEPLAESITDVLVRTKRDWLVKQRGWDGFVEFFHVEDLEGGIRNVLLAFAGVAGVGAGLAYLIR
# [5] = system: Streptococcus; experiment: Group A Streptococcus viability loss, dose response, counter-screen for streptokinase expression inhibitor project, luminescence, BacTiterGlo (AID 1915); format: functional, organism-based;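 note: potency for reduction of bacterial viability or growth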
# [6] = biological target: T3, Microphthalmia-associated transcription factor (Homo sapiens, UniProt O75030); experiment: TRPM1 promoter luciferase signal decrease, dose response, MITF inhibitor project, cell-based, SK-MEL-5, cherry-picked, set 3 (AID 493073); format: functional
# T3 sequence (O75030 whole entry): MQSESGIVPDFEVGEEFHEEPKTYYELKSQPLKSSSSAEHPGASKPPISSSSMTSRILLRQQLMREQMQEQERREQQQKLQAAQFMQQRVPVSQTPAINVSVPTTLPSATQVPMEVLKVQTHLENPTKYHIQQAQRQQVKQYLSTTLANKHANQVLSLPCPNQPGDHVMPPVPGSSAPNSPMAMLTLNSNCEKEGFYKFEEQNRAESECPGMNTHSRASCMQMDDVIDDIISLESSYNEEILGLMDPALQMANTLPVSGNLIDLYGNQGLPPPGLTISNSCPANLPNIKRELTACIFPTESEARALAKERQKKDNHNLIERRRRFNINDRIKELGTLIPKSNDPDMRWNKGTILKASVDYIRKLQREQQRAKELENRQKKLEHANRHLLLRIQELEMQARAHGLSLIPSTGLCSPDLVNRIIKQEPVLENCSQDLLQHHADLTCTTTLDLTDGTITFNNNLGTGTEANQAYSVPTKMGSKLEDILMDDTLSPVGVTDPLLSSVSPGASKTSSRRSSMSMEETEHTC
# [7] = LGR2 antagonists, dose response, cell-based, HEK293, CRE-luciferase reporter, cherry pick, set 2 (AID 743343); format: functional;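 note: transfected cells were stimulated with diluted bursicon conditioned medium after compound addition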
# [8] = MC4R antagonists, dose response, counter-screen for LGR2 antagonist project, cell-based, plate reader, cherry pick (AID 743444); format: functional;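 note: transfected HEK 293 cells stimulated with alpha-MSH peptide; potency of inhibitors of the alpha-MSH evoked signal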
# [9] = biological target: Eukaryotic translation initiation factor 4E (Mus musculus, UniProt P63073); experiment: eIF4E–eIF4G protein interaction inhibitors, dose response, biochemical, TR-FRET (AID 855); format: functional;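 note: potency for disrupting eIF4E binding to eIF4GI seen as loss of FRET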
# Eukaryotic translation initiation factor 4E, sequence (P63073 whole entry): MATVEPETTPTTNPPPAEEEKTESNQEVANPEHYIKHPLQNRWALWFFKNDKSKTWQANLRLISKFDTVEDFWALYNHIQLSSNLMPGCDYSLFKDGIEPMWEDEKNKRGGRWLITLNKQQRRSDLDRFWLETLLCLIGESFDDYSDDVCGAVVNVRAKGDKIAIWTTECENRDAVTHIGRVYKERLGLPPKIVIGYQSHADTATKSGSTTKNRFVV
# [10] = inhibitors of intracellular T. cruzi replication, confirmation, NIH3T3 host cells, beta-gal luminescence (AID 2044); format: functional, cell-based;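 note: intracellular parasites grown in NIH/3T3 mouse fibroblasts as host cells; luminescent beta-galactosidase reporter signal from transgenic T. cruzi replicating inside host cells; inhibitors lower the luminescence signal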
# [11] = cytotoxicity toward NIH3T3 fibroblasts, dose response, counter-screen, cell-based, ATP luminescence, mouse fibroblasts (AID 2010); format: functional;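 note: cells exposed to compound for about 90 hours before reading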
# [12] = cells
# [13] = biological target: Glyceraldehyde-3-phosphate dehydrogenase (Homo sapiens, UniProt P04406)
# Glyceraldehyde-3-phosphate dehydrogenase, sequence (P04406 whole entry): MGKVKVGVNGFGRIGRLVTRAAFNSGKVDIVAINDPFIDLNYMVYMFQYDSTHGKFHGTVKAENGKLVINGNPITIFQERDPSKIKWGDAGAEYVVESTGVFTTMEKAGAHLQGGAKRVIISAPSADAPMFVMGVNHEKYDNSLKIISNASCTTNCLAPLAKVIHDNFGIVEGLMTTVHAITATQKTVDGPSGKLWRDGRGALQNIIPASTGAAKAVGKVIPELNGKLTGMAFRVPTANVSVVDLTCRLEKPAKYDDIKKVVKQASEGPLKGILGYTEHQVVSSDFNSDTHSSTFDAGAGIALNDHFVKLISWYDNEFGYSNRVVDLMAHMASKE
# [14] = biological target: T4, Bcl-2-related protein A1 (Mus musculus, UniProt Q07440); experiment: Bfl-1 inhibitors blocking BH3 peptide binding, confirmation, biochemical, TR-FRET, mouse Bfl-1 (AID 621);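 note: TR-FRET binding of GST-Bfl-1 to FITC-labelled Bid peptide via terbium antibody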
# T4 sequence (Q07440 whole entry): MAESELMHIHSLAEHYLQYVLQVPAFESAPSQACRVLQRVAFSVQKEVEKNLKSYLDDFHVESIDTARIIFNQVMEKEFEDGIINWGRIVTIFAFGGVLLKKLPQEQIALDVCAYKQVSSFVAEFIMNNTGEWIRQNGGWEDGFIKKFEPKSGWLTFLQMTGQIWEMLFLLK
# [15] = biological target: T4, Bcl-2-related protein A1; experiment: Bfl-1 binding inhibitors, SAR follow-up, biochemical, fluorescence polarization (AID 1070)
# [16] = HEp-2 cell cytotoxicity, dose response, cytotoxicity control for RSV inhibitor project, HTS (AID 2410); format: functional; conditions: human respiratory syncytial virus
# [17] = cells; remark: listed apart in the source
# [18] = biological target: T5, Short transient receptor potential channel 4 (Mus musculus, UniProt Q9QUQ5); experiment: mouse TRPC4 channel inhibitors, dose response, cell-based, HEK293 TRPC4/mu-opioid, Fluo-4 calcium (AID 434942); format: functional;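 note: potency of inhibitors blocking the TRPC4 calcium response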
# T5 sequence (Q9QUQ5 whole entry): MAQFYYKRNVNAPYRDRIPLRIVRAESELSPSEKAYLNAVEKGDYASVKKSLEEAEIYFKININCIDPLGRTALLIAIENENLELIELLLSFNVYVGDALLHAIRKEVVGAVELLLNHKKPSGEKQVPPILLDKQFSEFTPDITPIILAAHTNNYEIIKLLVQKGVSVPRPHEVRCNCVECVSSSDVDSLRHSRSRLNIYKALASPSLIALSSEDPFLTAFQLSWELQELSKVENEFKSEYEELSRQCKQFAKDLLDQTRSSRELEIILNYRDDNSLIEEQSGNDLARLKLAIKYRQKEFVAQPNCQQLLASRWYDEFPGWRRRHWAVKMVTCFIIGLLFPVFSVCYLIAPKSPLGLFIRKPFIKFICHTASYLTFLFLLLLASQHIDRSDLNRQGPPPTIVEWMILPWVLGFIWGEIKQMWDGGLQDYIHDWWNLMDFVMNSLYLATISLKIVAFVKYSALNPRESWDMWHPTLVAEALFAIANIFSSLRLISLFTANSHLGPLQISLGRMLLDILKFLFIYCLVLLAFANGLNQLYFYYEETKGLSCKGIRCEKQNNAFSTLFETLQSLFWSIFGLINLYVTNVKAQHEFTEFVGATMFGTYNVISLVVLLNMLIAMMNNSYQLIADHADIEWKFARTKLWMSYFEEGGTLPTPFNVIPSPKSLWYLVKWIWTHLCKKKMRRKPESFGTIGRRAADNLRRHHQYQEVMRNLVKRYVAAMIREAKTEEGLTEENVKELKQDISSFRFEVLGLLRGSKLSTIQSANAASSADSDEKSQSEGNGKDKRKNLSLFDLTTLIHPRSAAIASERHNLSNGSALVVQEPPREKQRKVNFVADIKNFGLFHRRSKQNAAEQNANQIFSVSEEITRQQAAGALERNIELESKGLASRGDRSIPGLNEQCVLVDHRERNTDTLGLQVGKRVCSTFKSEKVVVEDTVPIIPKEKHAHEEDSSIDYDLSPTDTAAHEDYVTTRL
# [19] = biological target: T6, Estrogen receptor (Homo sapiens, UniProt P03372);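 note: potency for inhibiting coactivator peptide recruitment to the receptor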
# T6 sequence (P03372 whole entry): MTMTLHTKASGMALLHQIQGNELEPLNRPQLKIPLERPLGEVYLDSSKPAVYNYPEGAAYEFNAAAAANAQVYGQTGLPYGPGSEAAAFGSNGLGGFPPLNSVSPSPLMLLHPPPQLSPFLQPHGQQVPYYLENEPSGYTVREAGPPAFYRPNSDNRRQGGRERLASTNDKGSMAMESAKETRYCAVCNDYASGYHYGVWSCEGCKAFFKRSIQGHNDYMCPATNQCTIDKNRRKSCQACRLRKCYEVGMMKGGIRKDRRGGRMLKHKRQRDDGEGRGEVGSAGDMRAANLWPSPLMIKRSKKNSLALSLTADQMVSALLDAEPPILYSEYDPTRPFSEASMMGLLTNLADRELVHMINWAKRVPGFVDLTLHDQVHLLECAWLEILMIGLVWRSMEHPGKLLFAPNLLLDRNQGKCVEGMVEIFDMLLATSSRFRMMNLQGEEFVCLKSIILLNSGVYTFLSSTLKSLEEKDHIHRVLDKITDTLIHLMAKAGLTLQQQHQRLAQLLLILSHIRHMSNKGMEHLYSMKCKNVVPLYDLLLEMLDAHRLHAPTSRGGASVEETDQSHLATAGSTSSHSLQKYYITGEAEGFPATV
# [20] = biological target: Voltage-dependent T-type calcium channel subunit alpha-1H (Homo sapiens, UniProt O95180); format: functional;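 note: channel activity triggered by adding a high calcium stimulation buffer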
# Voltage-dependent T-type calcium channel subunit alpha-1H, sequence (O95180 whole entry): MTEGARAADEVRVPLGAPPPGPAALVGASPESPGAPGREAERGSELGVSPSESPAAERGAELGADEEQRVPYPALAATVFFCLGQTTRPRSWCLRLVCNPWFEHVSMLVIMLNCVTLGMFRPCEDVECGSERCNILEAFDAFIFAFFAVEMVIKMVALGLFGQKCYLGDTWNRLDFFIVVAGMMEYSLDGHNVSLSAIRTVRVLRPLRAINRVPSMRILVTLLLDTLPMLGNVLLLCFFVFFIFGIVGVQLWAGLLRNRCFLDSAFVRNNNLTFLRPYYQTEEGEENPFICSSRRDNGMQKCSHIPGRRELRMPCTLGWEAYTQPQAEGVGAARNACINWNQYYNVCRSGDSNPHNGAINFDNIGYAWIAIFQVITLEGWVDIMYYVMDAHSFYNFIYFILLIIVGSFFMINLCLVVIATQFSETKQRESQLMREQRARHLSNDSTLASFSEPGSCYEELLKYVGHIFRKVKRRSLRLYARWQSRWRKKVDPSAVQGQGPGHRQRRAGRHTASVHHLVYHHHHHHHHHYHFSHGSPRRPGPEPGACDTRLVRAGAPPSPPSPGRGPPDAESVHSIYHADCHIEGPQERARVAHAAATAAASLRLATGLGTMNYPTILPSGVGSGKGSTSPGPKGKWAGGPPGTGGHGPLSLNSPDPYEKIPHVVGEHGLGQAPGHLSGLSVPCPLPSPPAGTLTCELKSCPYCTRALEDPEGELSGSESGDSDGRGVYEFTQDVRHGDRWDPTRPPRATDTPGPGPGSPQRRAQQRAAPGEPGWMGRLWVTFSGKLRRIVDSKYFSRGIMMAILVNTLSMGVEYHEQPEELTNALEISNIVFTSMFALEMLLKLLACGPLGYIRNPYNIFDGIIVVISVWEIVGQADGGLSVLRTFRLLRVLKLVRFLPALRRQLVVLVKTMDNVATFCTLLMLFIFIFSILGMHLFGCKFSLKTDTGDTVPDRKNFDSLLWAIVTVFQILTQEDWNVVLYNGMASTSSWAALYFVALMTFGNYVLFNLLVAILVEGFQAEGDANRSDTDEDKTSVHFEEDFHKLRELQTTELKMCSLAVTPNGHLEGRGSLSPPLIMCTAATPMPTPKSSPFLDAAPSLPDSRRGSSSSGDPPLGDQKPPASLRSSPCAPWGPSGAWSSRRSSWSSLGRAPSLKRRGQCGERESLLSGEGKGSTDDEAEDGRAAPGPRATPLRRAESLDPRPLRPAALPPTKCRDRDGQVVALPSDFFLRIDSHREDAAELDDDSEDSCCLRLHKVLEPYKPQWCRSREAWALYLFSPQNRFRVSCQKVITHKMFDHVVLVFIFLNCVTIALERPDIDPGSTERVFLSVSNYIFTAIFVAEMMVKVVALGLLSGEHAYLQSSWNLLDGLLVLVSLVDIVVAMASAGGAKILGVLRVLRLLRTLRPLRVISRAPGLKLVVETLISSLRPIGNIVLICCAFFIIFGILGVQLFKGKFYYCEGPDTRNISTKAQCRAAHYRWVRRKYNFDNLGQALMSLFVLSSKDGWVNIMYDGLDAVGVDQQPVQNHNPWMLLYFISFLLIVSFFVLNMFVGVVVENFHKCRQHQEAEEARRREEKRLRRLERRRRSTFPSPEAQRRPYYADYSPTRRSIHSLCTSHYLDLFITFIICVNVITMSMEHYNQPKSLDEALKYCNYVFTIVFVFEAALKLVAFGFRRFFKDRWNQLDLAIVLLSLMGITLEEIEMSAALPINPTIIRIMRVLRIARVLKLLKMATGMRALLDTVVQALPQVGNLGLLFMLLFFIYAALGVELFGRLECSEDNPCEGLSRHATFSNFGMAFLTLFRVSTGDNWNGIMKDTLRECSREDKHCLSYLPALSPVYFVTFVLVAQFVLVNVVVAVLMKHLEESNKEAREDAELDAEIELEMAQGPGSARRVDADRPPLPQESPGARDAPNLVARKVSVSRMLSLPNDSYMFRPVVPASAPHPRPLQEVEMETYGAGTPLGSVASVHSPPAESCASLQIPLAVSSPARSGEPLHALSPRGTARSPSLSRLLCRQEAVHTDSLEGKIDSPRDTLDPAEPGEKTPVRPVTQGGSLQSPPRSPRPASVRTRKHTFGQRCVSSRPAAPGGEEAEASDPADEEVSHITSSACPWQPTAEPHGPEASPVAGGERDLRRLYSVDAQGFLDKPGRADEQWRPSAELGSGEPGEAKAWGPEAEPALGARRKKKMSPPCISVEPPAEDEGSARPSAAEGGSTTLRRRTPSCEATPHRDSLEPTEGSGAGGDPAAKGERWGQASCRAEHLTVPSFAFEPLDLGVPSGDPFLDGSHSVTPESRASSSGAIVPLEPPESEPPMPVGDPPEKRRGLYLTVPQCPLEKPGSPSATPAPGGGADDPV
# [21] = biological target: Eukaryotic translation initiation factor 4H (Homo sapiens, UniProt Q15056); experiment: human eIF4H binding inhibitors, primary screen, translation initiation inhibitor project, biochemical, uHTS, fluorescence polarization (AID 2012)
# [22] = biological target: Polyadenylate-binding protein 1 (Homo sapiens, UniProt P11940); experiment: PABP poly(A) RNA binding inhibitors, primary screen, biochemical, fluorescence polarization, uHTS (AID 2014)
# Polyadenylate-binding protein 1, sequence (P11940 whole entry): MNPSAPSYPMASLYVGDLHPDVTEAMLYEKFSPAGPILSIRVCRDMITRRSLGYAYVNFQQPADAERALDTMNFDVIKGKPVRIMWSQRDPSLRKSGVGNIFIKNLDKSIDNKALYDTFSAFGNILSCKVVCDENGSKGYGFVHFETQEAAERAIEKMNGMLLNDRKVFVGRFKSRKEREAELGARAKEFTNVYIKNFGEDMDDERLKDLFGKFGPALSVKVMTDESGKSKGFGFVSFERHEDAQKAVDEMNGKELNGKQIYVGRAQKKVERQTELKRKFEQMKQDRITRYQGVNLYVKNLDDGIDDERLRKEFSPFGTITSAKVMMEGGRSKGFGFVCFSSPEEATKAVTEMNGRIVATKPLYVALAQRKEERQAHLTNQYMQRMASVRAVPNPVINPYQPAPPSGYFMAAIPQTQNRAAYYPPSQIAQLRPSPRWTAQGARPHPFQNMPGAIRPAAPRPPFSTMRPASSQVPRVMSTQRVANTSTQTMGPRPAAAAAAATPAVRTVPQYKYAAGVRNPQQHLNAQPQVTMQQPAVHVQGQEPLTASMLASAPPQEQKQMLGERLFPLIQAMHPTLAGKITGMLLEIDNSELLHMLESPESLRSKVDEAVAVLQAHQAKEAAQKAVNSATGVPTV
# [23] = biological target: T5, Short transient receptor potential channel 4; experiment: mouse TRPC4 channel activators, dose response, cell-based, HEK293 TRPC4/mu-opioid, Fluo-4 calcium (AID 434937); format: functional
# [24] = biological target: DNA dC->dU-editing enzyme APOBEC-3A (Homo sapiens, UniProt P31941); experiment: Dose Response confirmation of small molecule APOBEC3A DNA Deaminase Inhibitors via a fluorescence-based single-stranded DNA deaminase assay. [Related pubchem assays (depositor defined):AID493011, AID493024]; format: functional
# DNA dC->dU-editing enzyme APOBEC-3A, sequence (P31941 whole entry): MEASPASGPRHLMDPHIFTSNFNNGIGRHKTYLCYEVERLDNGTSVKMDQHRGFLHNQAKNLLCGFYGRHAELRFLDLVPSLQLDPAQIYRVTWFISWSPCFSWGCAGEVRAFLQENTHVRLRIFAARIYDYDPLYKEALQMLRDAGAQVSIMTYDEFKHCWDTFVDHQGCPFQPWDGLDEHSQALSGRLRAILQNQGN
# [25] = biological target: DNA dC->dU-editing enzyme APOBEC-3G (Homo sapiens, UniProt Q9HC16); format: functional;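 note: Dose-response counterscreen measuring inhibition of APOBEC3G DNA deaminase activity, run while confirming APOBEC3A inhibitors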
# DNA dC->dU-editing enzyme APOBEC-3G, sequence (Q9HC16 whole entry): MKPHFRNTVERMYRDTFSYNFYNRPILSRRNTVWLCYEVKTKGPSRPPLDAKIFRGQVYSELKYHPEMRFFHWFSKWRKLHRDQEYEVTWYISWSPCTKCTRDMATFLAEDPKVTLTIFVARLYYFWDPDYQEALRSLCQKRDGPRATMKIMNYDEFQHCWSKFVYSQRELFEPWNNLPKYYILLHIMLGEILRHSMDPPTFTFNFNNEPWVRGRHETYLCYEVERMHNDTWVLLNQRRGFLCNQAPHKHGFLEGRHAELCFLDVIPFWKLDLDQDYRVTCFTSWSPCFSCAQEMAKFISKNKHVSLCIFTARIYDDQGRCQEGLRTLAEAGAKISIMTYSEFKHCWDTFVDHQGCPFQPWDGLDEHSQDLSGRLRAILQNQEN
smiles,measurement,setting,value
O=C(O)c1ccc(N/N=C/c2ccc(OC(=O)c3cccc(Cl)c3)cc2)cc1,EC50,[1],0.834 µM (active)
same,EC50,[2],> 150 µM (not active)
same,IC50,[3],3.04 µM (not active)
same,IC50,[4],8.08 µM (active)
same,EC50,[5],15.5 µM (active)
same,AC50,[6],3.21 µM (active)
same,AC50,[7],2.03 µM (active)
same,AC50,[8],1.21 µM (active)
C=CCn1c(S)nnc1-c1ccoc1,IC50,[9],> 64 µM (inactive)
COc1ccc(CCNCc2ccc(OCc3ccc(Cl)nc3)c(OC)c2)cc1OC,EC50,[10],< 0.1 µM (active)
same,EC50,[11],> 60 µM (inconclusive)
same,EC50,[12],0.048 µM (active)
CN(C)C1=C(Cl)C(=O)N(c2ccc(Cl)c(Cl)c2)C1=O,IC50,[13],> 100 µM (not active)
same,IC50,[14],0.54 µM (active)
same,IC50,[15],0.419 µM (active)
CC(Oc1ccc(Cl)cc1Cl)C(=O)NNC(=O)C(=O)N1CCCCC1 (stereo unspecified),CC50,[16],> 50 µM (active)
same,IC50,[17],40.6 µM (active)
Clc1ccc(C[n+]2cc(-c3ccccc3)n3c2CCC3)cc1Cl,EC50,[10],< 0.1 µM (active)
same,EC50,[11],> 30 µM (not active)
same,EC50,[18],3.76 µM (active)
same,EC50,[12],0.004 µM (active)
Cc1cc(NC(=O)CSc2cn(CCNC(=O)c3ccc(Cl)cc3)c3ccccc23)no1,IC50,[19],24.9 µM (active)
same,EC50,[20],0.13 µM (active)
O=C(CSc1nc2ccccc2c(=O)n1-c1ccccc1)NCC1CCCO1 (stereo unspecified),IC50,[21],> 100 µM (inactive)
same,IC50,[22],6.35 µM (active)
COc1cccc(NC(=O)CSc2nc3ccccc3nc2N2CCCC2)c1,CC50,[16],17.2 µM (active)
same,IC50,[17],30.5 µM (active)
COc1ccccc1/C=C/CN1CCCC(CCC(=O)NCc2ccccc2F)C1 (stereo unspecified),EC50,[10],< 0.1 µM (active)
same,EC50,[11],> 60 µM (not active)
same,EC50,[23],0.473 µM (active)
same,EC50,[12],0.025 µM (active)
O=C1C(Cl)=C(N2CCOCC2)C(=O)N1c1cccc([N+](=O)[O-])c1,IC50,[13],> 100 µM (not active)
same,IC50,[14],8.21 µM (active)
same,IC50,[15],9.68 µM (active)
CN1CCN(C2=C(Cl)C(=O)N(c3ccccc3Cl)C2=O)CC1,IC50,[13],> 100 µM (not active)
same,IC50,[14],1.45 µM (active)
same,IC50,[15],2.16 µM (active)
C=CCNC1=N[C@@H](c2cccc(C(F)(F)F)c2)C(C(=O)OC)=C(C)N1CC,IC50,[21],> 100 µM (inactive)
same,IC50,[22],9.23 µM (active)
same,IC50,[24],3.56 µM (active)
same,IC50,[25],3.81 µM (active)
Cc1ccc(OCCn2c(C3CC(=O)N(Cc4ccccc4)C3)nc3ccccc32)cc1 (stereo unspecified),CC50,[16],25.4 µM (active)
same,IC50,[17],3.14 µM (active)
CCOC(=O)c1ccc2c(c1)[n+](CCO)c(C)n2CC,IC50,[21],> 100 µM (inactive)
same,IC50,[22],3.29 µM (active)
CC(=O)c1cccc(NC(=O)Cc2cccs2)c1,IC50,[19],18.5 µM (active)
